“Also recorded” adds a separate entry of the source. Counter-ions that a name gives are not always drawn.
Columns and labels:
adjuvant arthritis = experiment: Anti-adjuvant arthritis activity in rats; format: in vivo, male Lewis rats
Experimental: (A model disease of rheumatoid arthritis) Male Lewis rats (8-9 weeks old) were used. Adjuvant arthritis was caused by the method described by B. B. Newbould in "Brit. J. Pharmacol.", 21, 127 (1963). Twenty-one days after the subcutaneous injection of a suspension of killed tubercle bacillus in Freund's adjuvant into the tail of the rats, the severity of arthritis was assayed as the hindleg volume. Each group of the rat was orally administered with the test compound once a day.

[1] = system: plaque-forming cells (PFC) in the spleen; experiment: Activity for suppressing immune response in BALB/C strain mice: plaque-forming cells (PFC); format: in vivo, female BALB/C strain mice; conditions: 30 mg/kg orally, same and next day of sensitization; 4 days after sensitization; control 17.4 ± 2.3 (for A), 9.5 ± 1.0 (for B); **p < 0.01 vs control
Experimental: (§1) Female BALB/C strain mice (6 weeks old) were used by dividing into groups of 6 animals. The sensitization was made by intraperitoneal injection of antigen: 5×10^8 sheep red blood cells. Each mouse was orally administered with the test compound on the same day and the next day of the sensitization. Four days after the sensitization, the number of plaque-forming cells (PFC) in the spleen, and the number of rosette-forming cells (RFC) in the spleen and/or thymus were measured in a usual manner.

[2] = system: rosette-forming cells (RFC) in the spleen and/or thymus; experiment: Activity for suppressing immune response in BALB/C strain mice: rosette-forming cells (RFC); format: in vivo, female BALB/C strain mice; conditions: 30 mg/kg orally, 4 days after sensitization; for No. of RFC, Spleen: control 135 ± 27 (for A), 172 ± 32 (for B), B **p < 0.01 vs control
Experimental: as §1

[3] = system: rosette-forming cells (RFC) in the spleen and/or thymus; experiment: Activity for potentiating immune response in C57BL/6 strain mice: rosette-forming cells (RFC); format: in vivo, female C57BL/6 strain mice; conditions: 30 mg/kg orally, 6 days after sensitization; for No. of RFC, Spleen: control 75 ± 17 (for A), 55 ± 11 (for B), **p < 0.01 vs control
Experimental: Female C57BL/6 strain mice (6 weeks old) were used dividing into groups of 6 animals. The sensitization was made by intraperitoneal injection of antigen: 5×10^8 sheep red blood cells. Each mouse was orally administered with the test compound on the same day and next day of the sensitization. Six days after the sensitization, the number of rosette-forming cells (RFC) in the spleen and/or thymus was measured in a usual manner.

peritoneal macrophages = experiment: Activation of peritoneal macrophage in mice (phagocytosis of yeast); format: cell-based, male dd mice; conditions: 0 μM control 33.9 ± 0.8
Experimental: Peritoneal macrophages were obtained from male dd mice (8 weeks old). After washing macrophages, the cells were adjusted to 5×10^6 macrophages/ml in Hanks' solution. A mixture containing 100 μl of the macrophage suspension, 50 μl of mice serum and 10 μl of the test compound was preincubated at 37° C. for 10 minutes, and then 50 μl of yeast cells (2.5×10^8 /ml) was added thereto. After further incubation of the mixture at 37° C. for 20 minutes, the number of macrophages phagocytosing yeast was counted in a usual manner.

Acute toxicity = format: in vivo; conditions: mouse, in vivo
Experimental: (§2) Acute toxicity was determined using male dd mice (8 weeks old).

male dd mice = experiment: Acute toxicity; format: in vivo; conditions: p.o.; printed beside LD50 >1000 mg/kg
Experimental: as §2

| Compound | Volume of Hindleg (adjuvant arthritis; 50 mg/kg orally once a day, twenty-one days after adjuvant injection, control 2.40 ± 0.20, **p < 0.01 vs control) [mL] | anti-adjuvant arthritis activity (in words) (adjuvant arthritis; dose of 50 mg/kg, dihydrochloride hemihydrate, 50 mg/kg) | No. of PFC, Spleen [1] | No. of RFC, Thymus ([2]; control 9.5 ± 1.0, **p < 0.01 vs control) | No. of RFC, Spleen [2] | No. of RFC, Thymus ([3]; control 2.8 ± 0.5, **p < 0.01 vs control) | No. of RFC, Spleen [3] | Phagocytosis (peritoneal macrophages; 10 μM) [%] | Phagocytosis (peritoneal macrophages; 30 μM, **p < 0.01 vs control) [%] | Phagocytosis (peritoneal macrophages; 100 μM, **p < 0.01 vs control) [%] | LD50 (Acute toxicity; ip) [mg/kg] | LD50 (Acute toxicity; po) [mg/kg] | dead/total animals (male dd mice) |
| --- | --- | --- | --- | --- | --- | --- | --- | --- | --- | --- | --- | --- | --- |
| CN(C)CCOc1ccc(C(=O)c2cccnc2OCCN(C)C)cc1 [Test compound A, 2,4'-bis(2-dimethylaminoethoxy)-3-benzoylpyridine dihydrochloride hemihydrate] | 1.17 ± 0.29 | significant inhibition of adjuvant arthritis; also recorded: has anti-arthritis activity | 9.0 ± 1.4 × 10^4 | 1.2 ± 0.4 × 10^4 | 126 ± 24 × 10^4 | 7.4 ± 1.1 × 10^4 | 214 ± 46 × 10^4 | 35.5 ± 1.9 | 46.5 ± 2.7 | 54.3 ± 3.1 | 300 | > 1000 | 1/6 |
| CC(CN(C)C)Oc1ccc(C(=O)c2cccnc2OC(C)CN(C)C)cc1 (stereo not shown) [Test compound B, 2,4'-bis(1-methyl-2-dimethylaminoethoxy)-3-benzoylpyridine dioxalate] | – | – | 4.6 ± 0.8 × 10^4 | – | 88 ± 10 × 10^4 | – | 149 ± 22 × 10^4 | 40.8 ± 2.7 | 49.6 ± 2.1 | 63.4 ± 6.7 | 250 | > 1000 | 0/5 |

Source: US4465681A, “Bis-(aminoalkoxy)-phenyl, pyridyl ketones, and use as immunological agents” (Yoshitomi Pharmaceutical Industries Ltd., priority 1980, dated 1984)
